Assay results taken from ChEMBL document CHEMBL5500396, “Discovery, Multiparametric Optimization, and Solid-State Driven Identification of CHF-6550, a Novel Soft Dual Pharmacology Muscarinic Antagonist and β2 Agonist (MABA) for the Inhaled Treatment of Respiratory Diseases” (J Med Chem, 2024).

How the values were obtained:
[1] = molecular target: Beta-2 adrenergic receptor (Cavia porcellus, UniProt Q8K4Z4); assay: Agonist activity at beta2 adrenoceptor in male albino Dunkin-Hartley guinea pig trachea assessed as inhibition of histamine induced smooth muscle contraction
Beta-2 adrenergic receptor (Cavia porcellus, UniProt Q8K4Z4), sequence (Q8K4Z4 whole entry): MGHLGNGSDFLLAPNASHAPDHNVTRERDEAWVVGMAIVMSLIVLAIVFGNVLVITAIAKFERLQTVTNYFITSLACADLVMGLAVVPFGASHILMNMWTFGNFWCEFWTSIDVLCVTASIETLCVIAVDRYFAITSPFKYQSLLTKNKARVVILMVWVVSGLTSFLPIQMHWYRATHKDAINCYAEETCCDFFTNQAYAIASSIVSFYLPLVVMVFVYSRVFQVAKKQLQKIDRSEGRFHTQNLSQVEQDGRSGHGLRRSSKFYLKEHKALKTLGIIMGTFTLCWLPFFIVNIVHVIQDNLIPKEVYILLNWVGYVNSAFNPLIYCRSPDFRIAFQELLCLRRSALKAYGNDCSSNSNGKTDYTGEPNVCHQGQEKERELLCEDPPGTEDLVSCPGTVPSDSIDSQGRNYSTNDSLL

Trachea = assay: Inhibition of carbachol-induced smooth muscle contraction in male albino Dunkin-Hartley guinea pig trachea; details: Cavia porcellus, read-out: pIC50 (converted)
Cavia porcellus [2] = assay: Inhibition of histamine induced bronchoconstriction in male albino Dunkin-Hartley guinea pig model at 0.3 nmol/kg, IT(Intratracheal) preadministered with compound followed by histamine addition at 5 to 30 mins and measured 1 hrs post compound treatment relative to control; details: read-out: INH
Cavia porcellus [3] = assay: Inhibition of acetylcholine induced bronchoconstriction in male albino Dunkin-Hartley guinea pig model at 0.3 nmol/kg, IT(Intratracheal) preadministered with compound followed by acetylcholine addition at 5 to 30 mins and measured 1 hrs post compound treatment relative to control; details: read-out: INH
Cavia porcellus [4] = assay: Bronchodilating effect in histamine induced male albino Dunkin-Hartley guinea pig model assessed as maximal efficacy at 0.3 nmol/kg, IT(Intratracheal) administered with compound followed by histamine addition at 5 to 30 mins and measured 1 hrs post compound treatment relative to control
Cavia porcellus [5] = assay: Bronchodilating effect in acetylcholine induced male albino Dunkin-Hartley guinea pig model assessed as maximal efficacy at 0.3 nmol/kg, IT(Intratracheal) administered with compound followed by acetylcholine addition at 5 to 30 mins and measured 1 hrs post compound treatment relative to control
[6] = Stability in guinea pig lung S9 fraction at 1 uM incubated for 60 mins by LC-MS/MS analysis
Cavia porcellus [7] = assay: Inhibition of histamine induced bronchoconstriction in male albino Dunkin-Hartley guinea pig model at 0.3 nmol/kg, IT(Intratracheal) preadministered with compound followed by histamine addition at 5 to 30 mins and measured 16 hrs post compound treatment relative to control; details: read-out: INH
Cavia porcellus [8] = assay: Inhibition of acetylcholine induced bronchoconstriction in male albino Dunkin-Hartley guinea pig model at 0.3 nmol/kg, IT(Intratracheal) preadministered with compound followed by acetylcholine addition at 5 to 30 mins and measured 16 hrs post compound treatment relative to control; details: read-out: INH
[9] = Half-life in guinea pig at 3 nmol/kg, IT(Intratracheal) administered as dry powder; details: in vivo, inhaled or intranasal
[10] = molecular target: Beta-2 adrenergic receptor (Homo sapiens, UniProt P07550)
Beta-2 adrenergic receptor (Homo sapiens, UniProt P07550), sequence (P07550 whole entry): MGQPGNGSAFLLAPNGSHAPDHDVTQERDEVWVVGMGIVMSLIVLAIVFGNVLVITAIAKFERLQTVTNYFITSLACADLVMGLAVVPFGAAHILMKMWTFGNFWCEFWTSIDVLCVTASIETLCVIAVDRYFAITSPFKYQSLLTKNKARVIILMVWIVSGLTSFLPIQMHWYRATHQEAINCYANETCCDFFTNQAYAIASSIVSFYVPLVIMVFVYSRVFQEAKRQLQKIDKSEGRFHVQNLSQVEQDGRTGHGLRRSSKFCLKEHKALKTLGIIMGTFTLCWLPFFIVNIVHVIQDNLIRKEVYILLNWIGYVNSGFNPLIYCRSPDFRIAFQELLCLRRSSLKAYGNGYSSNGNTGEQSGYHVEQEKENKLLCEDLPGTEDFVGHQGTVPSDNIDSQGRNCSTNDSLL
Description: Displacement of [125I]-Cyanopindolol from human beta2 adrenoceptor assessed as inhibition constant incubated for 1 hrs by Microbeta scintillation counter

[11] = molecular target: Voltage-gated inwardly rectifying potassium channel KCNH2 (Homo sapiens, UniProt Q12809)
Description: Inhibition of human ERG by patch clamp assay

[12] = molecular target: Sodium channel protein type 5 subunit alpha (Homo sapiens, UniProt Q14524)
Description: Inhibition of human Nav1.5

[13] = molecular target: Voltage-dependent L-type calcium channel subunit alpha-1C (Homo sapiens, UniProt Q13936)
Voltage-dependent L-type calcium channel subunit alpha-1C, sequence (Q13936 whole entry): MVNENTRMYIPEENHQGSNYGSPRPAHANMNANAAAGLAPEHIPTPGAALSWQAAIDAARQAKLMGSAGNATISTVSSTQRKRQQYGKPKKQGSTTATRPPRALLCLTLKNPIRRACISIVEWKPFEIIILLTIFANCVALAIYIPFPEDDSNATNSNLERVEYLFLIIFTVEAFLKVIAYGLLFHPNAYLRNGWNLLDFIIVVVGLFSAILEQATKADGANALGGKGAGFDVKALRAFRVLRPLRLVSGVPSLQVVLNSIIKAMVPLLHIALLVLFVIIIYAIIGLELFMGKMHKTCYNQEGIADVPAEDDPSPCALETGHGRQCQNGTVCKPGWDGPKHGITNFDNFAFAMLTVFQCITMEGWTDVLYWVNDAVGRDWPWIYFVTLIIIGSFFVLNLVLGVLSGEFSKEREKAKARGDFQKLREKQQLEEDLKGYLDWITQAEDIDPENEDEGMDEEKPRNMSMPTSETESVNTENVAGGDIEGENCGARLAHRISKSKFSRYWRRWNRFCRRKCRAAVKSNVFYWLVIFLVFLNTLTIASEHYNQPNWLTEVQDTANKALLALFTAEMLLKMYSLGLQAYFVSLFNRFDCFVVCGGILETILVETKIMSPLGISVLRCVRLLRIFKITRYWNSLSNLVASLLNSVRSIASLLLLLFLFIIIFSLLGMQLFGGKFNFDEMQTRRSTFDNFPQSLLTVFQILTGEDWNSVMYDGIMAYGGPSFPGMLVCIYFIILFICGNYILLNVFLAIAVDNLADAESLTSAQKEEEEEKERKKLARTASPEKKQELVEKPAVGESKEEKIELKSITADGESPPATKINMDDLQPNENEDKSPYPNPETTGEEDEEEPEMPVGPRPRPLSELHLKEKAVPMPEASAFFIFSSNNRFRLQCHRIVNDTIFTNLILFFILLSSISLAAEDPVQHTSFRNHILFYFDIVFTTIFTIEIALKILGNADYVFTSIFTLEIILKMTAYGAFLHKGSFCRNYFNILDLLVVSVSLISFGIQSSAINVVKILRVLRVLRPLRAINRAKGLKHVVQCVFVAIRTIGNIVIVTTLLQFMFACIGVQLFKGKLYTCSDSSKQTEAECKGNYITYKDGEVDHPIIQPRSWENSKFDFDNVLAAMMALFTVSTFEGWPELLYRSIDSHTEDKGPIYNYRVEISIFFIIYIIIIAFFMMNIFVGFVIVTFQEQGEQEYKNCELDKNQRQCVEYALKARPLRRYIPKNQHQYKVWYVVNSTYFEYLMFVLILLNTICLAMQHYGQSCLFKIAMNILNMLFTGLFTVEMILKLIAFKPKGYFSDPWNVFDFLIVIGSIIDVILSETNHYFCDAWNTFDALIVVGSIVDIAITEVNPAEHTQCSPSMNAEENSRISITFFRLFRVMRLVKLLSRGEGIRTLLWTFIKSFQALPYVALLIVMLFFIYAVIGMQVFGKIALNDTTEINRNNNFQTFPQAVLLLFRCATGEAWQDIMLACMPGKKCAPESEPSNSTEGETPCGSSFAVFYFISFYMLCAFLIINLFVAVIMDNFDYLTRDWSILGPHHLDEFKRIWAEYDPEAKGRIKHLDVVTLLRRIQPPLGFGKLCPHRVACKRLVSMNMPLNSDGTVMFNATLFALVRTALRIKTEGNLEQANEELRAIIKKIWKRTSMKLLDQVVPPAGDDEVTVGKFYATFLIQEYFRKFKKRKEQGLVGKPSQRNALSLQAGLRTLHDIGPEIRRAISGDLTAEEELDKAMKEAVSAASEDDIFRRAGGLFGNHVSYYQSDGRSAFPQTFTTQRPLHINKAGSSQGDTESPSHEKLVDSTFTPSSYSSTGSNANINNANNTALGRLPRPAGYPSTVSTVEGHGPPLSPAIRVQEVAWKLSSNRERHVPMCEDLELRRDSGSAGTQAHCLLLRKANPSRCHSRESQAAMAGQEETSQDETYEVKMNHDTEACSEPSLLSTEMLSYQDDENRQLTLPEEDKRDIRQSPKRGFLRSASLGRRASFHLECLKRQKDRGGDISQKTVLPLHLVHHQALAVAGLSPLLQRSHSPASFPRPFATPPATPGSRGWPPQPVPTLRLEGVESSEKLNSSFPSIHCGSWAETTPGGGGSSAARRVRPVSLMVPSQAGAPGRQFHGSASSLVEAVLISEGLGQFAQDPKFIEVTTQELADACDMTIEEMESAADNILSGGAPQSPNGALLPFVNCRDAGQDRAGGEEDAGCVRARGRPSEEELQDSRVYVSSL
Description: Inhibition of human Cav1.2

in vivo [14] = details: rat, iv, 125 ug
Description: Clearance in rat at 125 ug, iv measured after 1 hrs by LC-MS analysis

in vivo [15] = details: rat, iv, 125 ug; remark: listed apart in the source
Description: Volume of distribution at steady state in rat at 125 ug, iv measured after 1 hrs by LC-MS analysis

in vivo [16] = details: male, Dunkin-Hartley, guinea pig, inhaled or intranasal, 1 mM
Description: Toxicity in male albino Dunkin-Hartley guinea pig model assessed as inhibition of carbachol-induced salivation at 1 mM, preadministered with compound for 10 mins via aerosol followed by anesthesia treatment 3 hrs post compound addition and further treated with carbachol and measured every 5 mins for 4 times

in vivo [17] = details: male, Dunkin-Hartley, guinea pig, inhaled or intranasal, 3 mM
Description: Toxicity in male albino Dunkin-Hartley guinea pig model assessed as inhibition of carbachol-induced salivation at 3 mM, preadministered with compound for 10 mins via aerosol followed by anesthesia treatment 3 hrs post compound addition and further treated with carbachol and measured every 5 mins for 4 times

in vitro [18] = details: human, hepatocytes
Description: Metabolic stability in human hepatocytes assessed as clearance measured per 10^6 cells at 1 uM incubated for 90 mins by LC-MS/MS analysis

in vitro [19] = details: rat, hepatocytes
Description: Metabolic stability in rat hepatocytes assessed as clearance measured per 10^6 cells at 1 uM incubated for 90 mins by LC-MS/MS analysis

in vitro [20] = details: human, plasma
Description: Stability in human plasma assessed as half-life at 5 uM incubated for 120 mins by LC-MS/MS analysis

in vitro [21] = details: rat, plasma
Description: Stability in rat plasma assessed as half-life at 5 uM incubated for 120 mins by LC-MS/MS analysis

in vitro [22] = details: guinea pig, plasma
Description: Stability in guinea pig plasma assessed as half-life at 5 uM incubated for 120 mins by LC-MS/MS analysis

Cavia porcellus [23] = species on record: Cavia porcellus; assay: animal or person; details: albino Dunkin-Hartley, 1 h, read-out: INH
Description: Inhibition of acetylcholine induced bronchoconstriction in male albino Dunkin-Hartley guinea pig model at 0.3 nmol/kg, IT(Intratracheal) preadministered with compound followed by acetylcholine addition at 5 to 30 mins in presence of ICI-118551 and measured 1 hrs post compound treatment relative to control

Cavia porcellus [24] = species on record: Cavia porcellus; assay: animal or person; details: albino Dunkin-Hartley, 1 h
Description: Bronchodilating effect in acetylcholine induced male albino Dunkin-Hartley guinea pig model assessed as maximal efficacy at 0.3 nmol/kg, IT(Intratracheal) administered with compound followed by acetylcholine addition at 5 to 30 mins in presence of ICI-118551 and measured 1 hrs post compound treatment relative to control

Cavia porcellus [25] = species on record: Cavia porcellus; assay: animal or person; details: albino Dunkin-Hartley, 16 h, read-out: INH
Description: Inhibition of acetylcholine induced bronchoconstriction in male albino Dunkin-Hartley guinea pig model at 0.3 nmol/kg, IT(Intratracheal) preadministered with compound followed by acetylcholine addition at 5 to 30 mins in presence of ICI-118551 and measured 16 hrs post compound treatment relative to control

[26] = molecular target: Muscarinic acetylcholine receptor M3 (Cavia porcellus, UniProt Q8VH26); assay: Antagonist activity at M3 receptor in male albino Dunkin-Hartley guinea pig trachea assessed as inhibition of carbachol-induced smooth muscle contraction in presence of propranolol
Muscarinic acetylcholine receptor M3 (Cavia porcellus, UniProt Q8VH26), sequence (Q8VH26 whole entry): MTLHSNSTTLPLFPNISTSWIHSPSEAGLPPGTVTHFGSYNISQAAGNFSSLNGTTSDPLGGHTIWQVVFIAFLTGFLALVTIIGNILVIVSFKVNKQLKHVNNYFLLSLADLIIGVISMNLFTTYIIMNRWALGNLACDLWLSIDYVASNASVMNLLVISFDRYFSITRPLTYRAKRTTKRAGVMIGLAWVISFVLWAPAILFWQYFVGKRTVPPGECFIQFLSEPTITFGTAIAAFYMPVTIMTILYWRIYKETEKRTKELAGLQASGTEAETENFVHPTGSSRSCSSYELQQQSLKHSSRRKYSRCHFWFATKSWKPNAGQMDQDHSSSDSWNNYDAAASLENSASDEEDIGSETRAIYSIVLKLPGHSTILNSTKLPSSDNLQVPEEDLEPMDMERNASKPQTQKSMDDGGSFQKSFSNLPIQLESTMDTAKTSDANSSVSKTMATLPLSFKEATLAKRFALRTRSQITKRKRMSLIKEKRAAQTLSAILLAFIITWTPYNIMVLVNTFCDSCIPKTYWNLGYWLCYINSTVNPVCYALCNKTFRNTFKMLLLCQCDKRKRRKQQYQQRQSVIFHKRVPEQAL

Cavia porcellus [27] = assay: Inhibition of histamine induced bronchoconstriction in male albino Dunkin-Hartley guinea pig model at 3 nmol/kg, IT(Intratracheal) preadministered with compound followed by histamine addition at 5 to 30 mins and measured 1 hrs post compound treatment relative to control; details: read-out: INH
Cavia porcellus [28] = assay: Inhibition of acetylcholine induced bronchoconstriction in male albino Dunkin-Hartley guinea pig model at 3 nmol/kg, IT(Intratracheal) preadministered with compound followed by acetylcholine addition at 5 to 30 mins and measured 1 hrs post compound treatment relative to control; details: read-out: INH
[29] = Protein binding in human plasma at 5 uM incubated for 4 hrs by LC-MS/MS analysis
[30] = Protein binding in guinea pig plasma at 5 uM incubated for 4 hrs by LC-MS/MS analysis
Cavia porcellus [31] = assay: Inhibition of histamine induced bronchoconstriction in male albino Dunkin-Hartley guinea pig model at 3 nmol/kg, IT(Intratracheal) preadministered with compound followed by histamine addition at 5 to 30 mins and measured 16 hrs post compound treatment relative to control; details: read-out: INH
Cavia porcellus [32] = assay: Inhibition of acetylcholine induced bronchoconstriction in male albino Dunkin-Hartley guinea pig model at 3 nmol/kg, IT(Intratracheal) preadministered with compound followed by acetylcholine addition at 5 to 30 mins and measured 16 hrs post compound treatment relative to control; details: read-out: INH
[33] = molecular target: Muscarinic acetylcholine receptor M3 (Homo sapiens, UniProt P20309)
Muscarinic acetylcholine receptor M3 (Homo sapiens, UniProt P20309), sequence (P20309 whole entry): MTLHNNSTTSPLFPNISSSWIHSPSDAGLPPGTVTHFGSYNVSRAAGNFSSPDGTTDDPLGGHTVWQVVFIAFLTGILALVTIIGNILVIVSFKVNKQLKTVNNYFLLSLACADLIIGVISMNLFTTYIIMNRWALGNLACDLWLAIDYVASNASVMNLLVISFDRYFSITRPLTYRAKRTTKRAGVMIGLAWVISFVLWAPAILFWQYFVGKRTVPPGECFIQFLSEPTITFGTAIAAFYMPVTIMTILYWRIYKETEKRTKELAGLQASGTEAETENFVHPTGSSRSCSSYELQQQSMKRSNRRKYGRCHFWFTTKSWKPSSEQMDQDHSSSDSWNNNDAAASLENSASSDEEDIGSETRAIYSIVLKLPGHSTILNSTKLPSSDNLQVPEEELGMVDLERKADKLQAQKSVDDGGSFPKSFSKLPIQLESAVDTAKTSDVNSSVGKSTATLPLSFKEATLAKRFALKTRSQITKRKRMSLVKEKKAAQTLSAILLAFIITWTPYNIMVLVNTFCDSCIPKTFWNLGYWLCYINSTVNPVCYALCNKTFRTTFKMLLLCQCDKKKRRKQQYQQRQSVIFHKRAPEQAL
Description: Displacement of Scopolamine methyl chloride,[N-methyl-3H] from human muscarinic M3 receptor assessed as inhibition constant incubated for 2 hrs by Microbeta scintillation counter

in vitro [34] = details: guinea pig, lung S9 fraction
Description: Stability in guinea pig lung S9 fraction assessed as half-life at 1 uM incubated for 60 mins by LC-MS/MS analysis

in vitro [35] = details: guinea pig, hepatocytes
Description: Metabolic stability in guinea pig hepatocytes assessed as clearance measured per 10^6 cells at 1 uM incubated for 90 mins by LC-MS/MS analysis

in vitro [36] = details: human, lung S9 fraction
Description: Stability in human lung S9 fraction assessed as half-life at 1 uM incubated for 60 mins by LC-MS/MS analysis

in vitro [37] = details: rat, lung S9 fraction
Description: Stability in rat lung S9 fraction assessed as half-life at 1 uM incubated for 60 mins by LC-MS/MS analysis

Cavia porcellus [38] = species on record: Cavia porcellus; assay: animal or person; details: albino Dunkin-Hartley, 1 h, read-out: INH; remark: listed apart in the source
Description: Inhibition of acetylcholine induced bronchoconstriction in male albino Dunkin-Hartley guinea pig model at 3 nmol/kg, IT(Intratracheal) preadministered with compound followed by acetylcholine addition at 5 to 30 mins in presence of ICI-118551 and measured 1 hrs post compound treatment relative to control

Cavia porcellus [39] = species on record: Cavia porcellus; assay: animal or person; details: albino Dunkin-Hartley, 16 h, read-out: INH; remark: listed apart in the source
Description: Inhibition of acetylcholine induced bronchoconstriction in male albino Dunkin-Hartley guinea pig model at 3 nmol/kg, IT(Intratracheal) preadministered with compound followed by acetylcholine addition at 5 to 30 mins in presence of ICI-118551 and measured 16 hrs post compound treatment relative to control

in vivo [40] = details: male, Dunkin-Hartley, guinea pig, inhaled or intranasal, 0.3 mM
Description: Toxicity in male albino Dunkin-Hartley guinea pig model assessed as inhibition of carbachol-induced salivation at 0.3 mM, preadministered with compound for 10 mins via aerosol followed by anesthesia treatment 3 hrs post compound addition and further treated with carbachol and measured every 5 mins for 4 times

SMILES: CN1CCC[C@@H](OC(=O)[C@](O)(c2ccccc2)c2cccc(OCCCNC(=O)c3ccc(CNC[C@H](O)c4ccc(O)c5[nH]c(=O)ccc45)cc3)c2)C1
- IC50 [1]: 0.1 nM
- IC50 (Trachea): 0.126 nM
- inhibition in vivo at 0.0003 µmol/kg (Cavia porcellus [2]): 89%
- inhibition in vivo at 0.0003 µmol/kg (Cavia porcellus [3]): 89%
- Emax at 0.0003 µmol/kg (Cavia porcellus [4]): 89%
- Emax at 0.0003 µmol/kg (Cavia porcellus [5]): 89%
- remaining at 1 h, 1 µM [6]: 91.1%
- inhibition in vivo at 0.0003 µmol/kg (Cavia porcellus [7]): 57%
- inhibition in vivo at 0.0003 µmol/kg (Cavia porcellus [8]): 84%
- half-life [9]: 25 h
- Ki [10]: 0.0251 nM
- IC50 [11]: 128000 nM
- IC50 [12]: 310000 nM
- IC50 [13]: 314000 nM
- clearance at 1 h (in vivo [14]): 75 mL/min/kg
- Vd at 1 h (in vivo [15]): 0.75 L/kg
- inhibition at 3.167 h, 1000 µM (in vivo [16]): 33%
- inhibition at 3.167 h, 3000 µM (in vivo [17]): 43%
- hepatocyte CLint at 1.5 h, 1 µM (in vitro [18]): 3 µL/min/1e6 cells
- hepatocyte CLint at 1.5 h, 1 µM (in vitro [19]): 12 µL/min/1e6 cells
- half-life at 2 h, 5 µM (in vitro [20]): > 2.5 h
- half-life at 2 h, 5 µM (in vitro [21]): 0.15 h
- half-life at 2 h, 5 µM (in vitro [22]): 1.3 h
- inhibition in vivo at 0.0003 µmol/kg (Cavia porcellus [23]): 78%
- Emax at 0.0003 µmol/kg (Cavia porcellus [24]): 89%
- inhibition in vivo at 0.0003 µmol/kg (Cavia porcellus [25]): 54%

SMILES: O=C(NCCCOc1cccc([C@@](O)(C(=O)OCC2CCN(Cc3ccccc3)CC2)c2ccccc2)c1)c1ccc(CNCC(O)c2ccc(O)c3[nH]c(=O)ccc23)cc1 (stereo not given in full)
- IC50 [26]: 10 nM
- IC50 [1]: 0.0501 nM
- IC50 (Trachea): 0.251 nM
- inhibition in vivo at 0.003 µmol/kg (Cavia porcellus [27]): 86%
- inhibition in vivo at 0.003 µmol/kg (Cavia porcellus [28]): 93%
- fraction unbound at 4 h, 5 µM [29]: 0.01
- fraction unbound at 4 h, 5 µM [30]: 0.01
- remaining at 1 h, 1 µM [6]: 91.9%
- inhibition in vivo at 0.003 µmol/kg (Cavia porcellus [31]): 39%
- inhibition in vivo at 0.003 µmol/kg (Cavia porcellus [32]): 56%
- Ki [33]: 10 nM
- Ki [10]: 0.0501 nM
- half-life at 1 h, 1 µM (in vitro [34]): 4.67 h
- hepatocyte CLint at 1.5 h, 1 µM (in vitro [18]): 18 µL/min/1e6 cells
- hepatocyte CLint at 1.5 h, 1 µM (in vitro [19]): 33 µL/min/1e6 cells
- hepatocyte CLint at 1.5 h, 1 µM (in vitro [35]): 41 µL/min/1e6 cells
- half-life at 1 h, 1 µM (in vitro [36]): 2.3 h
- half-life at 1 h, 1 µM (in vitro [37]): 4.52 h
- half-life at 2 h, 5 µM (in vitro [20]): > 2.5 h
- half-life at 2 h, 5 µM (in vitro [21]): 0.183 h
- half-life at 2 h, 5 µM (in vitro [22]): > 2.5 h
- inhibition in vivo at 0.003 µmol/kg (Cavia porcellus [38]): 70%
- inhibition in vivo at 0.003 µmol/kg (Cavia porcellus [39]): 39%

SMILES: C[N+]1(C)[C@@H]2C[C@@H](OC(=O)C(O)(c3cccs3)c3cccs3)C[C@H]1[C@@H]1O[C@@H]12 [TIOTROPIUM BROMIDE]
- inhibition at 3.167 h, 300 µM (in vivo [40]): 77%
